Results from ChEMBL document CHEMBL5505953, “Facilitating the development of molecular glues: Opportunities from serendipity and rational design” (Eur J Med Chem, 2024).
Values belong to the molecule of their own block, whether it stands above or below them.

How the values were obtained:
LN-229 = test: cells; conditions: Homo sapiens, LN-229, 144 h
HeLa = test: cells; conditions: Homo sapiens, 48 h
A549 [1] = test: cells; conditions: Homo sapiens, A549, 48 h
MCF7 = test: cells; conditions: Homo sapiens, MCF7, 48 h
PC-3 = test: cells; conditions: Homo sapiens, PC-3, 48 h
NCI-H2122 = test: cells; conditions: Homo sapiens, NCI-H2122, 48 h
NCI-H1563 = test: cells; conditions: Homo sapiens, NCI-H1563, 48 h
RNA-binding protein 39 = RNA-binding protein 39 (Homo sapiens, UniProt Q14498)
Sequence of RNA-binding protein 39 (Q14498 whole entry): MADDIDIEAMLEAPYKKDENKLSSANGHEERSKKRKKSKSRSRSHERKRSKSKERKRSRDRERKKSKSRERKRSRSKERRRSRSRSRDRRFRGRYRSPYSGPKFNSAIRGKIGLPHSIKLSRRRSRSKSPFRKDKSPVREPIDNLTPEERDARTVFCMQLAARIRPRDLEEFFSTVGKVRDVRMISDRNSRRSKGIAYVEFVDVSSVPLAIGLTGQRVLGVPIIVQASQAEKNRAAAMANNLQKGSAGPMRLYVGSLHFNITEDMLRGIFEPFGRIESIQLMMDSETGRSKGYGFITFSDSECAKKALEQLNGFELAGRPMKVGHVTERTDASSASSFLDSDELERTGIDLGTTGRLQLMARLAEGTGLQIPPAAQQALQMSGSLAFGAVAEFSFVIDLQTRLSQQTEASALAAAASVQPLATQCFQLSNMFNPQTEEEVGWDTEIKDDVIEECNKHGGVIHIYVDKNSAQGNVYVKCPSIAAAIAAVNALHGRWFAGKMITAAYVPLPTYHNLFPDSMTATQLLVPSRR

[2] = biological target: B-cell lymphoma 6 protein (Homo sapiens, UniProt P41182)
[3] = biological target: Protein cereblon/Zinc finger protein Helios (Homo sapiens, UniProt Q96SW2+Q9UKS7); conditions: hek293t
Sequence of Protein cereblon/Zinc finger protein Helios (Q96SW2 whole entry): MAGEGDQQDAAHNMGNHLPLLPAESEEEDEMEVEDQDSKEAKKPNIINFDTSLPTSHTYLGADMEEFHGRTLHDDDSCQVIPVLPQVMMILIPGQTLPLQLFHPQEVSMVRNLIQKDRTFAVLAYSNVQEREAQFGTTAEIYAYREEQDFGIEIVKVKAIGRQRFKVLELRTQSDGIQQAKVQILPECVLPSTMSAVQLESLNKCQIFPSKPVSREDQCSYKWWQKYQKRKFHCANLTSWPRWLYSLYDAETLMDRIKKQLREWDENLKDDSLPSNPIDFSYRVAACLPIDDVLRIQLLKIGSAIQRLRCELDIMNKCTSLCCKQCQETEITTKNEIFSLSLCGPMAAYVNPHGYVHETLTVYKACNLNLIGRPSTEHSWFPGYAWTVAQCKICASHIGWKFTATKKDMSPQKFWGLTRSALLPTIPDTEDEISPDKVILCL
Sequence of Protein cereblon/Zinc finger protein Helios (Q9UKS7 whole entry): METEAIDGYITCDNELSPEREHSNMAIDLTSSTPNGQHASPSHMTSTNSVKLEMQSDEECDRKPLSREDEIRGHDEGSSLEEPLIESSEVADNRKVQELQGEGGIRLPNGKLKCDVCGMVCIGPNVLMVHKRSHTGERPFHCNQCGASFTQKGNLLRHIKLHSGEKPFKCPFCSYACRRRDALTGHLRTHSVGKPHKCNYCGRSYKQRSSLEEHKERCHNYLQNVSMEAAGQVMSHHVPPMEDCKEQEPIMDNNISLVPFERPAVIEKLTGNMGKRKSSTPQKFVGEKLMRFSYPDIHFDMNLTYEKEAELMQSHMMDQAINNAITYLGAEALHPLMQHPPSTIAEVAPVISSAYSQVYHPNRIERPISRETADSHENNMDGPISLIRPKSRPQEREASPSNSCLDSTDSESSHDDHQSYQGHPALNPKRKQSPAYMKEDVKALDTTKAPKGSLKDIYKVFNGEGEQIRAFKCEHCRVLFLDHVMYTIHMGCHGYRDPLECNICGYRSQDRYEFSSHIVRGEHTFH

Cyclin-K = Cyclin-K (Homo sapiens, UniProt O75909); conditions: hct-116
A549 [4] = test: cells; conditions: Homo sapiens, A549, 72 h
HCT-116 = test: cells; conditions: Homo sapiens, HCT-116, 72 h
Estrogen receptor = Estrogen receptor (Homo sapiens, UniProt P03372)
[5] = biological target: Protein cereblon/Tyrosine-protein kinase BTK (Homo sapiens, UniProt Q06187+Q96SW2); conditions: ramos
[6] = biological target: Cereblon/Casein kinase I alpha (Homo sapiens, UniProt P48729+Q96SW2); conditions: molm-13
[7] = biological target: Cystic fibrosis transmembrane conductance regulator (Homo sapiens, UniProt P13569)
Sequence of Cystic fibrosis transmembrane conductance regulator (P13569 whole entry): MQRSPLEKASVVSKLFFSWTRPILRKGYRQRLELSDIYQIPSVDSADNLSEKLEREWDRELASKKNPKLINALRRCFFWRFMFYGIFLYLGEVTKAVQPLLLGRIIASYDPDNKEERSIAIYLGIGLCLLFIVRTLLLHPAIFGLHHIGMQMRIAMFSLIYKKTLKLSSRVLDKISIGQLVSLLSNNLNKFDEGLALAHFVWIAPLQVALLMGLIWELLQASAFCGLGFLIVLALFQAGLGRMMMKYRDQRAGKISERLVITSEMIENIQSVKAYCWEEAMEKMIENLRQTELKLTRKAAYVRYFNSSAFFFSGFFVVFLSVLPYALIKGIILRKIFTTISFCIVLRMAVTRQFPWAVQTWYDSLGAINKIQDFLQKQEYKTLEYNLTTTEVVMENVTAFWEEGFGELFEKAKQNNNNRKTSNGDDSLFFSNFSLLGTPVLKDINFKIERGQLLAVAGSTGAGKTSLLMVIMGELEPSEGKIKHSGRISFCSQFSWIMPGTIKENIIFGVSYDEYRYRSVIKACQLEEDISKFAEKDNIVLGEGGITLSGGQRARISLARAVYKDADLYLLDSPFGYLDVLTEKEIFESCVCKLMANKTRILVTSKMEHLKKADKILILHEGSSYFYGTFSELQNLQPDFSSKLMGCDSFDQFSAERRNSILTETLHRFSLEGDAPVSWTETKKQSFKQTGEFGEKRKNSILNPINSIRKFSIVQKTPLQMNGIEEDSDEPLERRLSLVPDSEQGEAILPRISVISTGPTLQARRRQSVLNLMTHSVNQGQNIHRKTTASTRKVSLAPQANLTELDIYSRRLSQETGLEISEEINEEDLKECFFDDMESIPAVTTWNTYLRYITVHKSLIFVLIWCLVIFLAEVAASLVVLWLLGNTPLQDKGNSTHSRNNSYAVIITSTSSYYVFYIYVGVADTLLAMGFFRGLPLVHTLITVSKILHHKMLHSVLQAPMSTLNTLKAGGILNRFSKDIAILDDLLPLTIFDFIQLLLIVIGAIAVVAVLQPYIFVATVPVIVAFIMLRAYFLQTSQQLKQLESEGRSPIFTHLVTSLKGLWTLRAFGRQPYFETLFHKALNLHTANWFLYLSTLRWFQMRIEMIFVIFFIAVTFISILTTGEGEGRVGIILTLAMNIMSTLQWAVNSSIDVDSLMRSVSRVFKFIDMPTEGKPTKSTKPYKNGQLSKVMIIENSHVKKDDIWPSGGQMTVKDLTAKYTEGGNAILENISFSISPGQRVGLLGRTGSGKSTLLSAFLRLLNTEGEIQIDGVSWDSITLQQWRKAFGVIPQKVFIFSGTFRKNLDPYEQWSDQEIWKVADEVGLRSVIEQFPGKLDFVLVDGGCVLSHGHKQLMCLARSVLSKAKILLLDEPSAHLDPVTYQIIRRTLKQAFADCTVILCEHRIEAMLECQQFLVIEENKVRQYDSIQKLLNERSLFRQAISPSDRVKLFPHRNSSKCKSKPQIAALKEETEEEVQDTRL

MDA-MB-231 = test: cells; conditions: Homo sapiens, MDA-MB-231, 48 h
HCC38 = test: cells; conditions: Homo sapiens, HCC38, 48 h
CDK12/Cyclin K = CDK12/Cyclin K (Homo sapiens, UniProt Q9NYV4)
Sequence of CDK12/Cyclin K (O75909 whole entry): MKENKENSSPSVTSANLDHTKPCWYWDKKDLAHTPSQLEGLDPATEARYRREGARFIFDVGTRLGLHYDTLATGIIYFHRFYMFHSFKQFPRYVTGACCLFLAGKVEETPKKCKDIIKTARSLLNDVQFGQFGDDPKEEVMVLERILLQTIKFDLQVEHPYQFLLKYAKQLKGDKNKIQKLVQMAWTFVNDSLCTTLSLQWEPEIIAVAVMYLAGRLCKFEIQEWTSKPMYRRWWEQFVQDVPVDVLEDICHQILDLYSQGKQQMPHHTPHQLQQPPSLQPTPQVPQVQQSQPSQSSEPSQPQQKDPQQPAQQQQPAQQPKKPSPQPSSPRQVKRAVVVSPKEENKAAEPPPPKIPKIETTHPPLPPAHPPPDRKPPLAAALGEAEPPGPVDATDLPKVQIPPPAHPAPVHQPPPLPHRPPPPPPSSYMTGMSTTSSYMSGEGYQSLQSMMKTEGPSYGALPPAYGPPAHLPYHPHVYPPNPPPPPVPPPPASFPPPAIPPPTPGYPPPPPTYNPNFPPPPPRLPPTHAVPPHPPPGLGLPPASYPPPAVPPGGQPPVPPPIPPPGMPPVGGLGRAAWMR
Sequence of CDK12/Cyclin K (Q9NYV4 whole entry): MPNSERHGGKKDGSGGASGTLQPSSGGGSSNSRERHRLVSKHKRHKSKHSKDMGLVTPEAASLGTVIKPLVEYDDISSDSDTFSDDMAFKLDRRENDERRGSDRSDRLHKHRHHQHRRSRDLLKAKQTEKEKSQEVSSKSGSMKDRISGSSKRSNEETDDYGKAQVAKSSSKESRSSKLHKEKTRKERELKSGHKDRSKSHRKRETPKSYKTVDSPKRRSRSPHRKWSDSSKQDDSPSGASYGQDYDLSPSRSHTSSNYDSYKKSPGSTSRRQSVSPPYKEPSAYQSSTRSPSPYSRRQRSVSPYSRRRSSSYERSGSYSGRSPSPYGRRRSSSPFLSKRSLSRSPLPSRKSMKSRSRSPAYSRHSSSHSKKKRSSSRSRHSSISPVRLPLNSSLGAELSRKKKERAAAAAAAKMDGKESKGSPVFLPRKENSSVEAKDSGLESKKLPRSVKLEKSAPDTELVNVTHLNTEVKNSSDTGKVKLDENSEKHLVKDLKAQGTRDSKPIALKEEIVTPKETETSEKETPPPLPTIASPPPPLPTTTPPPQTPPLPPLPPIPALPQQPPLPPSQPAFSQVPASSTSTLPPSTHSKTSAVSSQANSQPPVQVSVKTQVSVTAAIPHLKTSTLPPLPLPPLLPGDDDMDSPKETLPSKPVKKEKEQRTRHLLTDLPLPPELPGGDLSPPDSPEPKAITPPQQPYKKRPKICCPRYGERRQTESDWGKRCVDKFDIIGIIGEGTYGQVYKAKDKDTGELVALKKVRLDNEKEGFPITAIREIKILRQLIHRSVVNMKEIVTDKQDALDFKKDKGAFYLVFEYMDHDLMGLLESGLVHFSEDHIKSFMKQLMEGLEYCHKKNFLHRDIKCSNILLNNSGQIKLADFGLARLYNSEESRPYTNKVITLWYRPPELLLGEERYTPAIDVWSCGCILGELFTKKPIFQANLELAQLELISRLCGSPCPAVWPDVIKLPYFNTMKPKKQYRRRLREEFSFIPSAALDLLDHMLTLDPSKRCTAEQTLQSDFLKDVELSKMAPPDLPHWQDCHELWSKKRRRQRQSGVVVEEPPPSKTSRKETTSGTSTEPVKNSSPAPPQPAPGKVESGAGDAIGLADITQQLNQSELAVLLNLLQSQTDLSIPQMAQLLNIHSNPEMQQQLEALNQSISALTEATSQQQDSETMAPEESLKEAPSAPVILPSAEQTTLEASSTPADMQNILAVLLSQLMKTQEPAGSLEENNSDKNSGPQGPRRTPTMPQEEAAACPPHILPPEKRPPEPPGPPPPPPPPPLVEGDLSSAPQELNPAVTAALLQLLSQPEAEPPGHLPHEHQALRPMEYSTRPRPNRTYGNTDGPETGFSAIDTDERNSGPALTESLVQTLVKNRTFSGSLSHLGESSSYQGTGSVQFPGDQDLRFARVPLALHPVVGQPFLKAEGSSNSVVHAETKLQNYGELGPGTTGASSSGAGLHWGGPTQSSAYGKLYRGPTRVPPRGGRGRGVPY

[8] = biological target: 14-3-3 protein beta/alpha (Homo sapiens, UniProt P31946)
Protein cereblon = Protein cereblon (Homo sapiens, UniProt Q96SW2)
Sequence of Protein cereblon (Q96SW2 whole entry): as the sequence (Q96SW2 whole entry) above

IC50 (LN-229): 2300 nM
SMILES: O=C(Nc1ccc(Cl)c([N+](=O)[O-])c1)Nc1nc2ccccc2s1

EC50 (HeLa): 10 nM
EC50 (A549 [1]): 10 nM
EC50 (MCF7): 10 nM
EC50 (PC-3): 10 nM
EC50 (NCI-H2122): 10 nM
EC50 (NCI-H1563): 10 nM
SMILES: CCN(CC)c1ccc(C2=NNC(=O)CC2C)cc1[N+](=O)[O-] (stereo unspecified)

IC50 [2]: < 3 nM
SMILES: CNC(=O)COc1cc2cc(Nc3nc(N4C[C@H](C)C[C@H](C)C4)ncc3Cl)ccc2n(C)c1=O

DC50 (Cyclin-K): 132 nM
IC50 (A549 [4]): 1300 nM
IC50 (HCT-116): 1300 nM
SMILES: Cc1cccc(Nc2nc(CC(=O)Nc3ncc(C)s3)cs2)n1

DC50 [6]: 11 nM
SMILES: O=C1CCC(N2Cc3c(CNC(=O)c4ccc(F)cc4)cccc3C2=O)C(=O)N1 (stereo unspecified)

IC50 (LN-229): 850 nM
SMILES: N#Cc1ccc2nc(NC(=O)Nc3cccc(Cl)c3)sc2c1

IC50 (CDK12/Cyclin K): 400 nM
SMILES: O=C(CSc1nnc2c(n1)[nH]c1ccccc12)Nc1ccc(Cl)cn1

Second part, the molecule before the results:

SMILES: Cc1ccc(S(=O)(=O)N/N=C/c2cc(Br)ccc2O)cc1
IC50 (RNA-binding protein 39): 400 nM

SMILES: O=C1CCC(N2Cc3cc(C4CCN(Cc5ccccc5)CC4)ccc3C2=O)C(=O)N1 (stereo unspecified)
DC50 [3]: 4000 nM

SMILES: O=C1CCC(N2Cc3cc(C4CCNCC4)ccc3C2=O)C(=O)N1 (stereo unspecified)
DC50 [3]: > 50000 nM

SMILES: O=C(C1=C(O)C(=O)N(c2ccccc2O)C1c1ccc([N+](=O)[O-])cc1)c1ccccc1 (stereo unspecified)
IC50 (Estrogen receptor): 75000 nM

SMILES: Nc1ncnc2c1c(-c1ccc(Oc3ccccc3)cc1)nn2[C@H]1CCCN(C(=O)CCCCCCCCNc2ccc3c(c2)C(=O)N(C2CCC(=O)NC2=O)C3=O)C1 (stereo partly specified)
DC50 [5]: 50 nM

SMILES: N=C(N)NCCC[C@@H]1NCc2ccccc2Sc2ccccc2CNC(=O)[C@H](Cc2ccc(O)cc2)NC(=O)[C@H](CCCN)NC1=O
IC50 [7]: 36100 nM

SMILES: O=C(/C=C/C=C/C=C/C1CCCCC1)NC1=C[C@@](O)(/C=C/C=C/C=C/C(=O)NC2=C(O)CCC2=O)[C@@H]2O[C@@H]2C1=O
EC50 (MDA-MB-231): 13800 nM
EC50 (HCC38): 4500 nM

SMILES: O=C(CSc1nc2ccccc2[nH]1)Nc1ccc(Cl)cn1
IC50 (CDK12/Cyclin K): 400 nM

SMILES: O=C(COc1ccccc1P(=O)(O)O)NCCc1ccccc1
IC50 [8]: 5200 nM

SMILES: Cc1ccc(C(=O)N2CSCC2C(=O)/N=c2/[nH]cc(C)s2)o1 (stereo unspecified)
IC50 (CDK12/Cyclin K): 400 nM

SMILES: NS(=O)(=O)c1ccc(S(=O)(=O)Nc2cccc3c(Cl)c[nH]c23)cc1
IC50 (Protein cereblon): 360 nM
